Targets include A*2601 (Homo sapiens, UniProt P04439, A114D/A173T/A270S/D101N/D185E/E277Q/E87N/F33Y/G231S/I121R/I218V/K168Q/L180W/L300P/L318F/P208A/P217A/Q86R/Q94H/R138Q/S129P/T187R/T323A/T345S/V100A/V358M); A*3002 (Homo sapiens, UniProt P04439, D101N/D140H/D185E/E176R/F33S/G80R/H175R/K168Q/Q94H/R138E/R41S/V100E); HLA-A1 (A*0101) (Homo sapiens, UniProt P04439, A114D/A174V/A182V/D101N/D185E/E176A/E190D/L180R/Q94H/R68K/S129P/T187R/V100A/V91M/W191G); A*2902 (Homo sapiens, UniProt P04439, A270S/D101N/D185E/E176V/E277Q/E87Q/F33T/G231S/H175R/I121M/I218V/I322F/K168Q/L300P/L318F/M331R/P208A/P217A/Q86L/T323A/T345S/V100A/V358M); A*6801 (Homo sapiens, UniProt P04439, A269V/D185E/E176V/E277Q/E87N/F33Y/G231S/I121M/I166T/I218V/L180W/L300P/L318F/N151K/P208A/P217A/Q86R/R169H/T345S); A*3301 (Homo sapiens, UniProt P04439, A270S/D185E/E176V/E277Q/E87N/F33T/G231S/H175R/I121M/I218V/I322F/K168Q/K210R/L300P/L318F/M331R/P217A/Q86R/Q94H/R138Q/T323A/T345S/T97I/V358M/Y195H); A31 (A*3101) (Homo sapiens, UniProt P04439, A270S/D185E/E176V/E277Q/F33T/G231S/G80R/H175R/I121M/I218V/I322F/K168Q/L300P/L318F/M331R/P217A/Q94H/R138Q/T323A/T345S/T97I/V358M); HLA-A11 (A*1101) (Homo sapiens, UniProt P04439, A114D/D185E/E176A/F33Y/L180Q/S129P/T187R); HLA-A3.2 (A*0301) (Homo sapiens, UniProt P04439).

Test in all cases: biochemical
Holding throughout (type): binding

No end group written: not given here.

Sequence of A*3002 (P04439 whole entry, looked up, the tested form may be a part, stated change not applied): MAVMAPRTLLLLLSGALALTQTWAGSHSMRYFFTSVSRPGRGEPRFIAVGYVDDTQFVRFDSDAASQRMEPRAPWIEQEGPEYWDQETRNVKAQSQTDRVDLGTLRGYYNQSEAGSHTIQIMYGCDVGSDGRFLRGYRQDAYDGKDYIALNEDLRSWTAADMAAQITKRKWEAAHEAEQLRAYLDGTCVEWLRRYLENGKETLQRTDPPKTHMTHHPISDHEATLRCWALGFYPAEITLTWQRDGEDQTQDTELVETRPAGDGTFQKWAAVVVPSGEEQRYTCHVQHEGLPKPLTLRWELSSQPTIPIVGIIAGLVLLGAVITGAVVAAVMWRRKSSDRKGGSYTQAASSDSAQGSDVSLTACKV

For VWDIVYIEY [Peptide 9018.0040], the IC50 is 336 nM against A*2601, 472 nM on A*3002, 91 nM against HLA-A1 (A*0101) and 540 nM against A*2902.

Turning to WKSLVKHHMY [Peptide 9015.0177], the IC50 against A*2601 was more than 20000 nM; at A*3002, 148 nM; against HLA-A1 (A*0101), more than 20000 nM; on A*2902, more than 20000 nM.

As for LSDMVQWAY [Peptide 1593.03], the IC50 is 8060 nM against A*2601, 161 nM against A*3002, 21 nM at HLA-A1 (A*0101) and 504 nM against A*2902.

RYSTQVDPGY [Peptide 9018.0039]: the IC50 at A*2601 was more than 20000 nM; on A*3002 it was 40 nM; at HLA-A1 (A*0101), 12200 nM; against A*2902 it was more than 20000 nM.

Turning to KLNWASQIY [Peptide 1595.09], the IC50 was more than 20000 nM against A*2601; 2.9 nM against A*3002; more than 20000 nM on A*6801; more than 20000 nM at A*3301; more than 20000 nM at A31 (A*3101); 950 nM against HLA-A11 (A*1101). The IC50 against HLA-A1 (A*0101) stood at 11300 nM; against HLA-A3.2 (A*0301), 63 nM; on A*2902 it was 108 nM.

Turning to NTLVKHHMY [Peptide 9018.0009], the IC50 on A*2601 turned out to be 7370 nM; on A*3002, 69 nM; on HLA-A1 (A*0101) it was 363 nM; against A*2902, 45 nM.

Consider NSDVKHHMY [Peptide 9018.0010], for which the IC50 at A*2601 was determined as 8990 nM; against A*3002, 70 nM; against HLA-A1 (A*0101) it was 3.2 nM; against A*2902, 193 nM.

As for HYARELHPEY [Peptide 9018.0035], the IC50 on A*2601 was more than 20000 nM; against A*3002, 104 nM; against HLA-A1 (A*0101), more than 20000 nM; against A*2902 it was 928 nM.

On to NTPPLVKLWY [Peptide 9015.0170], for which the IC50 against A*2601 came to 199 nM; at A*3002, 9350 nM; on HLA-A1 (A*0101) it was 18400 nM; against A*2902 it was 2650 nM.

RFALNPGLL [Peptide 1605.01]: the IC50 against A*2601 was more than 20000 nM; at A*3002, 98 nM; against HLA-A1 (A*0101) it was more than 20000 nM; at A*2902, more than 20000 nM.

Turning to LADQLIHLY [Peptide 9015.0038], the IC50 came out at 6090 nM on A*2601, 96 nM on A*3002, 4 nM against HLA-A1 (A*0101) and 1330 nM against A*2902.

On to ITDDSDIAY [Peptide 1580.14], for which the IC50 at A*2601 is 7470 nM; on A*3002, 3150 nM; against HLA-A1 (A*0101), 4.2 nM; against A*2902, 2100 nM.

DLDDQLIHLY [Peptide 9018.0022]: the IC50 against A*2601 worked out at 38 nM; at A*3002, 2.7 nM; against HLA-A1 (A*0101), 4.9 nM; on A*2902 it was 3.7 nM.

Turning to LMWKFDSSL [Peptide 1605.16], the IC50 is more than 20000 nM against A*2601, 348 nM at A*3002, more than 20000 nM at HLA-A1 (A*0101) and 2050 nM against A*2902.

On to VSDRANGWFY [Peptide 9018.0012], for which the IC50 amounted to 191 nM at A*2601, 18 nM against A*3002, 4.3 nM at HLA-A1 (A*0101) and 932 nM on A*2902.

As to STEWRLRRY [Peptide 9018.0019], the IC50 stood at 320 nM against A*2601, 6.6 nM on A*3002, 52 nM against HLA-A1 (A*0101) and 271 nM on A*2902.

As to CQDKILEHY [Peptide 1580.23], the IC50 is more than 20000 nM against A*2601, 2600 nM against A*3002, 55 nM on HLA-A1 (A*0101) and more than 20000 nM at A*2902.

As to SFEPIPIHY [Peptide 9015.0001], the IC50 at A*2601 was 953 nM; against A*3002, 191 nM; on HLA-A1 (A*0101), more than 20000 nM; against A*2902, 9.4 nM.

As to STDAALYWY [Peptide 1593.02], the IC50 is 24 nM against A*2601, 68 nM on A*3002, 2.6 nM on HLA-A1 (A*0101) and 26 nM at A*2902.

GYADQLIHLY [Peptide 9018.0025]: the half-maximal inhibitory concentration (IC50) came to 4400 nM at A*2601, 1.2 nM against A*3002, 109 nM at HLA-A1 (A*0101) and 42 nM against A*2902.

With SIDWRLRRY [Peptide 9018.0020], the 50% inhibitory concentration (IC50) amounted to 624 nM against A*2601, 27 nM against A*3002, 986 nM on HLA-A1 (A*0101) and 3310 nM against A*2902.

Take ITDDSEIAY [Peptide 1593.04]: the half-inhibitory concentration (IC50) was determined as 7370 nM at A*2601, 3100 nM against A*3002, 20 nM against HLA-A1 (A*0101) and 1440 nM against A*2902.

For the sequence ETKKGKAGY [Peptide 9015.0024], the IC50 at A*2601 is 15 nM; against A*3002 it was 2100 nM; against HLA-A1 (A*0101) it was more than 20000 nM; at A*2902, more than 20000 nM.

On to SIDWRQRRY [Peptide 9018.0018], for which the IC50 on A*2601 was 236 nM; on A*3002, 3.5 nM; against HLA-A1 (A*0101), 43 nM; on A*2902 it was 561 nM.

Consider GTDCNGWFY [Peptide 1593.01], for which the IC50 at A*2601 turned out to be 318 nM; against A*3002, 330 nM; at HLA-A1 (A*0101) it was 40 nM; on A*2902, 73 nM.

Take VSRRAKGWFY [Peptide 9015.0178]: the IC50 against A*2601 was more than 20000 nM; on A*3002, 40 nM; on HLA-A1 (A*0101), 273 nM; on A*2902, 11900 nM.

Turning to ETWETWWTDY [Peptide 9015.0169], the IC50 was 2.3 nM at A*2601, 8650 nM on A*3002, 955 nM against HLA-A1 (A*0101) and 11800 nM at A*2902.

Take KSLVKHHMY [Peptide 9015.0034]: the IC50 against A*2601 is more than 20000 nM; on A*3002, 7.7 nM; against HLA-A1 (A*0101), 10500 nM; against A*2902 it was 2790 nM.

ETKLGKAGY [Peptide 9015.0023]: the IC50 on A*2601 was 21 nM; on A*3002, 3900 nM; against HLA-A1 (A*0101), more than 20000 nM; on A*2902, more than 20000 nM.

On to QTRVLAIERY [Peptide 9015.0156], for which the IC50 on A*2601 is 3310 nM; against A*3002, 67 nM; at HLA-A1 (A*0101), 6420 nM; against A*2902, 4180 nM.

As to LSEMIQWAY [Peptide 1580.17], the IC50 against A*2601 is more than 20000 nM; against A*3002, 77 nM; against HLA-A1 (A*0101) it was 1.5 nM; at A*2902, 187 nM.

On to GYFPDWQNY [Peptide 1605.15], for which the IC50 was more than 20000 nM at A*2601, 48 nM at A*3002, more than 20000 nM on HLA-A1 (A*0101) and 659 nM at A*2902.

As for HMDRELHPEY [Peptide 9018.0005], the IC50 at A*2601 amounted to 6.8 nM; against A*3002, 3.6 nM; against HLA-A1 (A*0101), 5.1 nM; at A*2902, 13 nM.

With LYDQLIHMYY [Peptide 9018.0031], the IC50 against A*2601 stood at 4370 nM; on A*3002, 38 nM; against HLA-A1 (A*0101), 191 nM; against A*2902, 131 nM.

In the case of EISNYTDIIY [Peptide 9015.0158], the IC50 at A*2601 is 59 nM; on A*3002, 2900 nM; on HLA-A1 (A*0101), 6020 nM; at A*2902, more than 20000 nM.

In the case of SSDAALYWY [Peptide 1593.08], the IC50 at A*2601 was more than 20000 nM; against A*3002 it was 799 nM; on HLA-A1 (A*0101) it was 34 nM; on A*2902 it was 1970 nM.

As to DTADQLIHLY [Peptide 9018.0021], the IC50 was 3.2 nM at A*2601, 13 nM on A*3002, 3.6 nM against HLA-A1 (A*0101) and 30 nM at A*2902.

For the sequence HMDREKHPEY [Peptide 9018.0007], the IC50 was 2760 nM against A*2601, 648 nM at A*3002, 24 nM against HLA-A1 (A*0101) and more than 20000 nM against A*2902.

In the case of KQNPDIVIY [Peptide 1595.10], the IC50 at A*2601 is more than 20000 nM; against A*3002, 7.4 nM; against A*6801 it was more than 20000 nM; at A*3301, more than 20000 nM; at A31 (A*3101) it was 4550 nM; against HLA-A1 (A*0101) it was more than 20000 nM. Also, the IC50 on HLA-A3.2 (A*0301) was 3800 nM; against A*2902, more than 20000 nM.

Consider QTDYYGLYY [Peptide 1593.06], for which the IC50 worked out at 122 nM against A*2601, 674 nM against A*3002, 1.3 nM on HLA-A1 (A*0101) and 38 nM on A*2902.

The values are drawn from patent publication US9340577B2, “HLA binding motifs and peptides and their uses” (priority 1992, dated 2016).
